Results as given in article PMC4870834 (Biochemistry, 2015).

Key:
Assay in all cases: intrinsic fluorescence titration
Assay type in all cases: binding
SULT1A1 [1] = target: SULT1A1 (Homo sapiens, UniProt P50225, I89A)
SULT1A1 [2] = target: SULT1A1 (Homo sapiens, UniProt P50225)
SULT1A1 [3] = target: SULT1A1 (Homo sapiens, UniProt P50225, F255A)
SULT1A1 [4] = target: SULT1A1 (Homo sapiens, UniProt P50225, V243G)
SULT1A1 [5] = target: SULT1A1 (Homo sapiens, UniProt P50225, D249S)
SULT1A1 (Homo sapiens, UniProt P50225, D249S), sequence (P50225 whole entry D249S): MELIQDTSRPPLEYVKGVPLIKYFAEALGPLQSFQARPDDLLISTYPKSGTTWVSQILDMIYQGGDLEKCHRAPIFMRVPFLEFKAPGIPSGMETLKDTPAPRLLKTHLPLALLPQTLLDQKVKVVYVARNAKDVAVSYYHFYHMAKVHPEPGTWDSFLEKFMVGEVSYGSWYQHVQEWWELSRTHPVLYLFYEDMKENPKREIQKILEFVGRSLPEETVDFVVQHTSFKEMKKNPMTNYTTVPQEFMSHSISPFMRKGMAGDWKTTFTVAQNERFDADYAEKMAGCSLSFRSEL

SULT1A1 (Homo sapiens, UniProt P50225, I89A), sequence (P50225 whole entry I89A): as the sequence (P50225 whole entry D249S) above, with I89A, S249D counted along it
SULT1A1 (Homo sapiens, UniProt P50225, F255A), sequence (P50225 whole entry F255A): as the sequence (P50225 whole entry D249S) above, with S249D, F255A counted along it
SULT1A1 (Homo sapiens, UniProt P50225, V243G), sequence (P50225 whole entry V243G): as the sequence (P50225 whole entry D249S) above, with V243G, S249D counted along it
SULT1A1 (Homo sapiens, UniProt P50225), sequence (P50225 whole entry): as the sequence (P50225 whole entry D249S) above, with S249D counted along it

Structure (SMILES) | Kd (SULT1A1 [1]) [nM] | Kd (SULT1A1 [2]) [nM] | Kd (SULT1A1 [3]) [nM] | Kd (SULT1A1 [4]) [nM] | Kd (SULT1A1 [5]) [nM]
Oc1ccc2ccccc2c1 [2-Nap] | 1800 | 1500 | 2000 | 2200 | 2200
C[C@]12CC[C@@H]3c4ccc(O)cc4CC[C@H]3[C@@H]1CC[C@@H]2O [E2] | 1500 | – | 900 | 900 | 900
Nc1ncnc2c1ncn2[C@@H]1O[C@H](COP(=O)(O)O)[C@@H](OP(=O)(O)O)[C@H]1O [PAP] | 310 | 270 | 270 | 280 | 300
C[C@]12CC[C@@H]3c4ccc(O)cc4C[C@@H](CCCCCCCCC[S+]([O-])CCCC(F)(F)C(F)(F)F)[C@H]3[C@@H]1CC[C@@H]2O (stereo partly shown) [fulvestrant] | 1100 | 1700 | 1500 | 1300 | 1600
